Measurements taken from ChEMBL document CHEMBL4043204, “meso-Dihydroguaiaretic acid derivatives with antibacterial and antimycobacterial activity” (Bioorg Med Chem, 2017).
In brackets after ≈: the same amount, converted by molar mass. Activity calls are given as the source filed them. No cut-off for these calls is given here.

What was measured:
Providencia rettgeri = test: Antibacterial activity against NDM-1 positive Providencia rettgeri assessed as inhibition of microbial growth up to 50 ug/ml incubated for 24 hrs by microdilution assay; format: functional
Pseudomonas aeruginosa = test: Antibacterial activity against carbapenem-resistant Pseudomonas aeruginosa (13-1391) assessed as inhibition of microbial growth up to 50 ug/ml incubated for 48 hrs by microdilution assay; format: functional
Acinetobacter baumannii = test: Antibacterial activity against carbapenem-resistant Acinetobacter baumannii (12-666) assessed as inhibition of microbial growth up to 50 ug/ml incubated for 24 hrs by microdilution assay; format: functional
[1] = tested on: Mycobacterium tuberculosis; test: Antimycobacterial activity against Mycobacterium tuberculosis H37Rv ATCC 27294 assessed as inhibition of mycobacterial growth incubated for 2 weeks by MABA method; format: functional; details: for MIC: Mycobacterium tuberculosis, H37Rv ATCC 27294, 336 h
Escherichia coli [2] = test: Antibacterial activity against extended-spectrum beta-lactamase-positive Escherichia coli (14-2081) assessed as inhibition of microbial growth up to 50 ug/ml incubated for 24 hrs by microdilution assay; format: functional
[3] = Selectivity index, ratio of IC50 for cytotoxicity against African green monkey Vero cells to MIC for Mycobacterium tuberculosis H37Rv ATCC 27294; format: toxicity, cell-based; details: read-out: Selectivity Index
Escherichia coli [4] = test: Antibacterial activity against oxacillin-resistant Escherichia coli OXA-48 assessed as inhibition of microbial growth up to 50 ug/ml incubated for 24 hrs by microdilution assay; format: functional
Klebsiella pneumoniae [5] = test: Antibacterial activity against extended-spectrum beta-lactamase-positive Klebsiella pneumoniae (14-2081) assessed as inhibition of microbial growth up to 50 ug/ml incubated for 24 hrs by microdilution assay; format: functional
[6] = tested on: Stenotrophomonas maltophilia; test: Antibacterial activity against trimethoprim-sulfamethoxazole-resistant Stenotrophomonas maltophilia assessed as inhibition of microbial growth up to 50 ug/ml incubated for 24 hrs by microdilution assay; format: functional
Vero = test: Cytotoxicity against African green monkey Vero cells assessed as reduction in cell viability incubated for 24 hrs by trypan blue staining based assay; details: Chlorocebus sabaeus
Klebsiella pneumoniae [7] = test: Antibacterial activity against NDM-1 positive Klebsiella pneumoniae (14-3335) assessed as inhibition of microbial growth up to 50 ug/ml incubated for 24 hrs by microdilution assay; format: functional
[8] = tested on: Mycobacterium tuberculosis; test: Antimycobacterial activity against Mycobacterium tuberculosis H37Rv ATCC 27294 assessed as inhibition of mycobacterial growth up to 50 ug/ml incubated for 2 weeks by MABA method; format: functional

Structure (SMILES)	Activity (Providencia rettgeri)	Activity (Pseudomonas aeruginosa)	Activity (Acinetobacter baumannii)	-logMIC [1]	MIC [1]	Activity (Escherichia coli [2])	selectivity ratio [3]	Activity (Escherichia coli [4])	Activity (Klebsiella pneumoniae [5])	Activity [6]	IC50 (Vero)	Activity (Klebsiella pneumoniae [7])	growth inhibition (GI) [8]
COc1cc(C[C@@H](C)[C@@H](C)Cc2ccc(OC(=O)c3ccccc3)c(OC)c2)ccc1O (racemic)	inactive	inactive	inactive	4.61	12.5 mg/L (≈ 28.8 µM)	inactive	9.97	inactive	inactive	inactive	125 mg/L (≈ 287 µM)	inactive	
COc1cc(C[C@@H](C)[C@@H](C)Cc2ccc(OC(=O)c3ccccc3[N+](=O)[O-])c(OC)c2)ccc1O (racemic)	inactive	inactive	inactive	3.94	12.5 mg/L (≈ 26.1 µM)	inactive	7.76	inactive	inactive	inactive	97.1 mg/L (≈ 202 µM)	inactive	
COc1cc(C[C@@H](C)[C@@H](C)Cc2ccc(OC(=O)c3ccccc3[N+](=O)[O-])c(OC)c2)ccc1OC(=O)c1ccccc1[N+](=O)[O-]	inactive	inactive	inactive	4.03		inactive		inactive	inactive	inactive		inactive	inactive
COc1cc(C[C@@H](C)[C@@H](C)Cc2ccc(OCCN(C)C)c(OC)c2)ccc1O (racemic)	inactive	inactive	inactive	4.53	12.5 mg/L (≈ 31.1 µM)	inactive	26.1	inactive	inactive	inactive	327 mg/L (≈ 813 µM)	inactive	
COc1ccc(C[C@@H](C)[C@@H](C)Cc2ccc(OC)c(OC)c2)cc1OC [TERAMEPROCOL]	inactive	inactive	inactive	4.35		inactive		inactive	inactive	inactive		inactive	inactive
COc1cc(C[C@@H](C)[C@@H](C)Cc2ccc(OCCN3CCCC3)c(OC)c2)ccc1O (racemic)	inactive	inactive	inactive	5.25	12.5 mg/L (≈ 29.2 µM)	inactive	> 39	inactive	inactive	inactive	> 487 mg/L	inactive	
COc1cc(C[C@@H](C)[C@@H](C)Cc2ccc(OC(=O)c3cnccn3)c(OC)c2)ccc1OC(=O)c1cnccn1	inactive	inactive	inactive	4.23	50 mg/L (≈ 92.2 µM)	inactive		inactive	inactive	inactive		inactive	
COc1cc(C[C@@H](C)[C@@H](C)Cc2ccc(OC(=O)c3ccccc3)c(OC)c2)ccc1OC(=O)c1ccccc1	inactive	inactive	inactive	4.14		inactive		inactive	inactive	inactive		inactive	inactive
CCCCCCCC/C=C\CCCCCCCC(=O)Oc1ccc(C[C@@H](C)[C@@H](C)Cc2ccc(OC(=O)CCCCCCC/C=C\CCCCCCCC)c(OC)c2)cc1OC	inactive	inactive	inactive	4.88		inactive		inactive	inactive	inactive		inactive	inactive
COc1cc(C[C@@H](C)[C@@H](C)Cc2ccc(OC(=O)c3ccc(Br)cc3)c(OC)c2)ccc1OC(=O)c1ccc(Br)cc1	inactive	inactive	inactive	4.09		inactive		inactive	inactive	inactive		inactive	inactive
COc1cc(C[C@@H](C)[C@@H](C)Cc2ccc(OC(=O)c3ccc(Br)cc3)c(OC)c2)ccc1O (racemic)	inactive	inactive	inactive	4.58	12.5 mg/L (≈ 24.3 µM)	inactive	8.93	inactive	inactive	inactive	112 mg/L (≈ 217 µM)	inactive	
COc1cc(C[C@@H](C)[C@@H](C)Cc2ccc(OC(C)=O)c(OC)c2)ccc1OC(C)=O	inactive	inactive	inactive	4.23	50 mg/L (≈ 121 µM)	inactive	1.9	inactive	inactive	inactive	95.1 mg/L (≈ 230 µM)	inactive	
COc1cc(C[C@@H](C)[C@@H](C)Cc2ccc(OCCN3CCOCC3)c(OC)c2)ccc1O (racemic)	inactive	inactive	inactive			inactive		inactive	inactive	inactive		inactive	inactive
CCCC(=O)Oc1ccc(C[C@@H](C)[C@@H](C)Cc2ccc(OC(=O)CCC)c(OC)c2)cc1OC	inactive	inactive	inactive	4.04		inactive		inactive	inactive	inactive		inactive	inactive
COc1cc(C[C@@H](C)[C@@H](C)Cc2ccc(OCCN(C)C)c(OC)c2)ccc1OCCN(C)C	inactive	inactive	inactive	4.32	6.25 mg/L (≈ 13.2 µM)	inactive	> 77.9	inactive	inactive	inactive	> 487 mg/L	inactive	
CC[C@@H](CO)NCCN[C@@H](CC)CO [ETHAMBUTOL]					3.12 mg/L (≈ 15.3 µM)		125				391 mg/L (≈ 1910 µM)		
COc1cc(C[C@@H](C)[C@@H](C)Cc2ccc(OC(=O)c3cccnc3)c(OC)c2)ccc1OC(=O)c1cccnc1	inactive	inactive	inactive	4.2	12.5 mg/L (≈ 23.1 µM)	inactive	2.9	inactive	inactive	inactive	36.3 mg/L (≈ 67.1 µM)	inactive	
CCN(CC)CCOc1ccc(C[C@@H](C)[C@@H](C)Cc2ccc(OCCN(CC)CC)c(OC)c2)cc1OC	inactive	inactive	inactive	4.55	25 mg/L (≈ 47.3 µM)	inactive	1.45	inactive	inactive	inactive	36.2 mg/L (≈ 68.5 µM)	inactive	
COc1cc(C[C@@H](C)[C@@H](C)Cc2ccc(OCCN3CCCC3)c(OC)c2)ccc1OCCN1CCCC1	inactive	inactive	inactive		25 mg/L (≈ 47.6 µM)	inactive	> 19.5	inactive	inactive	inactive	> 487 mg/L	inactive	
COc1cc(C[C@@H](C)[C@@H](C)Cc2ccc(OC(=O)c3cccnc3)c(OC)c2)ccc1O (racemic)	inactive	inactive	inactive	4.05	50 mg/L (≈ 115 µM)	inactive	1.43	inactive	inactive	inactive	71.4 mg/L (≈ 164 µM)	inactive	
